{
  "source": "paper PMC5522460",
  "about": "“Crystal structure of a low molecular weight activator Blm-pep with yeast 20S proteasome – insights into the enzyme activation mechanism” (Scientific Reports, 2017)",
  "target": "human 20S proteasome (Homo sapiens, UniProt P25786+P28066)",
  "assay": "Proteolytic stability assay with human 20S proteasome",
  "assay_type": "in vitro ADME",
  "details": "10 µM peptide, 0.025 mg/ml h20S, 25 mM Tris-HCl pH 8.0, 3 hours, 37 °C, RP-HPLC and MALDI TOF",
  "procedure": "Blm-pep was incubated either with human or yeast 20S proteasome. Both assays were conducted in 25 mM Tris-HCl buffer (pH 8.0, measured at 20 °C), which for y20S contained 0.25 mM EDTA as an additive. The peptide and proteasome concentrations in 100 μl final solution were 10 µM and 0.025 mg/ml, respectively. Incubation was carried out for 3 hours at 37 °C. The reaction was stopped by addition of 5 μl of 10% TFA. Results were analyzed using RP-HPLC and MALDI TOF. Prior to MS analysis the samples were desalted using C18 spin columns (Pierce).",
  "note": "Where no end group is shown, it is not given here.",
  "data": [
    {"sequence": "KYFTGSKLWRSYYA [Blm-pep]", "values": [
      {"measurement": "proteolytic stability with human 20S proteasome", "result": "digested"}
    ]}
  ]
}
